Measurements reported in patent US20220061311A1, “COMPOSITIONS AND METHODS FOR REDUCING CRYOPRESERVATION TOXICITY” (The Regents of the University of Colorado, a body, priority 2018, published 2022).
Where “and” joins values, the source holds several entries; their conditions need not be identical. Identical values can stand only once. Like-named read-outs stand apart in the source and are kept apart here.

What was measured:
MYH9 protein = MYH9 protein (Homo sapiens, UniProt P35579); conditions: Chiu et al., Molecular Oncology 6, 2012; cited from earlier work
MYH9 protein, sequence (P35579 whole entry, species assumed): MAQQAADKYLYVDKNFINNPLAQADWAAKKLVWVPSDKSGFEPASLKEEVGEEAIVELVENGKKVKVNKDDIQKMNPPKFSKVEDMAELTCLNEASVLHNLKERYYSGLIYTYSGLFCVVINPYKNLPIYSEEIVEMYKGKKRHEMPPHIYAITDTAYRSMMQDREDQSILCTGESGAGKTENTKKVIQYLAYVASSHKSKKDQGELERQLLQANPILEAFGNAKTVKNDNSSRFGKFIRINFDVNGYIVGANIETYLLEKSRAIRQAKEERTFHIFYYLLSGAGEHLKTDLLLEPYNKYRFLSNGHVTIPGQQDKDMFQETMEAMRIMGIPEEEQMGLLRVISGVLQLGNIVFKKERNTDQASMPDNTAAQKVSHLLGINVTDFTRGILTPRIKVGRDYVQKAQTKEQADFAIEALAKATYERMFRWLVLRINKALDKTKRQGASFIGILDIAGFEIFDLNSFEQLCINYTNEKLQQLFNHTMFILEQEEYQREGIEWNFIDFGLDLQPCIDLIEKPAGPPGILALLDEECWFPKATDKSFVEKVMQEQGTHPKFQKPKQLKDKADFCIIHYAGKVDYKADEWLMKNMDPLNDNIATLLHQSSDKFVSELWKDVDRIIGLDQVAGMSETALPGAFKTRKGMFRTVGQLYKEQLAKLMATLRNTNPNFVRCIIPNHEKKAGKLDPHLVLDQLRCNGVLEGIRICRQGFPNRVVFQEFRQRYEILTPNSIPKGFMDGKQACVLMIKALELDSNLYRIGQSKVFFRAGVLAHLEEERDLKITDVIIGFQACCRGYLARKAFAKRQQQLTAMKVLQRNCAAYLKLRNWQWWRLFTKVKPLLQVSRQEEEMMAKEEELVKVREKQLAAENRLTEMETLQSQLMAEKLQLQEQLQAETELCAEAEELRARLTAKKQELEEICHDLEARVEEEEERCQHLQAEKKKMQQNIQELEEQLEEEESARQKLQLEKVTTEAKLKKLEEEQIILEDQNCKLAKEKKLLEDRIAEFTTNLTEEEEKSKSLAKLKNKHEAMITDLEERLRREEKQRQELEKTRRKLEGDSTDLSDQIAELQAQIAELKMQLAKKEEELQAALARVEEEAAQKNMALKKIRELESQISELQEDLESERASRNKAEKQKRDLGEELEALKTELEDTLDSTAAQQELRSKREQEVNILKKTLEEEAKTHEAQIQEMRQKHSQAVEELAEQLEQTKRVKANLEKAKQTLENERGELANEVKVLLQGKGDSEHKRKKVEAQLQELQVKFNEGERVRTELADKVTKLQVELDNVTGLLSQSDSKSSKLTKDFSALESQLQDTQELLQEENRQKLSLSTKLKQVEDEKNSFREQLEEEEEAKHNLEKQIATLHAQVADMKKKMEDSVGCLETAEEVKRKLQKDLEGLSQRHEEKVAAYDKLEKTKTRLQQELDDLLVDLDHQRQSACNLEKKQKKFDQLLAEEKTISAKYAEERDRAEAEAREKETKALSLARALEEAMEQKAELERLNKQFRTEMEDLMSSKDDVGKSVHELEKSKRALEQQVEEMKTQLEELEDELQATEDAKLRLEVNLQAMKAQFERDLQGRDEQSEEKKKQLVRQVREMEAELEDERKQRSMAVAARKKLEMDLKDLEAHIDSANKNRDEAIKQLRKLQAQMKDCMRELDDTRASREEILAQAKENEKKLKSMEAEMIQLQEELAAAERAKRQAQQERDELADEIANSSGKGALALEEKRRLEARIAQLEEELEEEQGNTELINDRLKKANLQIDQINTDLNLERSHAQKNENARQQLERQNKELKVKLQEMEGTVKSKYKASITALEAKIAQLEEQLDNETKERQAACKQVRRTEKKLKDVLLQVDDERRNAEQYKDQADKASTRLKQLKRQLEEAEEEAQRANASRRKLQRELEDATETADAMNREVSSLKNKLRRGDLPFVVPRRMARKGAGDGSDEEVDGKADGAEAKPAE

TJ1060 worms [1] = assay: Worms on 10% M22 +/- Afatinib in liquid survival medium; format: in vivo, C. elegans; parameters: Mean (survival): unit not given here
Procedure: FIG. 6 is a histogram. Sterile young adult worms (TJ1060) were put into liquid survival medium with 10% M22 and varying concentrations of Afatinib and followed until all were dead. Data from 4 replicate blinded experiments are shown.
Young adult worms from TJ1060 were grown on agar plates at 25° C. with varying concentrations of Afatinib and put into liquid survival medium with 10% M22+/−Afatinib at 20° C. They were followed until all were dead. Data from 4 replicate experiments are shown; experiments were blinded.

TJ1060 worms [2] = assay: Survival on Afatinib on agar plates; format: in vivo, C. elegans; parameters: Mean (survival): unit not given here; conditions: for Mean (survival) / survival (vs no Afatinib control): agar plates
Procedure: Eggs from TJ1060 were put onto NGM agar plates with varying concentrations of Afatinib at 25° C. On day 3, sterile staged young adult worms were moved to agar plates with Afatinib at 20° C. and followed until all were dead.

[3] = tested on: Mouse embryonic stem cells (ESCs); assay: Afatinib pre-treatment of mouse embryonic stem cells before M22 toxicity challenge; format: cell-based
Procedure: Mouse embryonic stem cells (ESCs) were pre-treated with Afatinib in concentrations of 1 nM, 7.5 nM, 15 nM, 30 nM, and 75 nM. The ESCs were then subjected to various concentrations of M22, including a lethal challenge of 6% in normal culture media.

ERB3/4 = conditions: cited from earlier work
HSBP1 protein = conditions: Arai et al., Chem. Sci., 2016; cited from earlier work
[4] = 10% M22 + Afatinib 10 nM, summary of 4 experiments
[5] = 10% M22 + Afatinib 100 nM, summary of 4 experiments
[6] = 10% M22 + Afatinib 1000 nM, summary of 4 experiments

Compound: Cc1ccc2c(c1)C(=O)C1(O)CCN(c3ccccc3)C1=N2 (stereo not shown) [Blebbistatin]
- inhibition of MYH9 protein (MYH9 protein): Blebbistatin inhibits the MYH9

Compound: CN(C)C/C=C/C(=O)Nc1cc2c(Nc3ccc(F)c(Cl)c3)ncnc2cc1O[C@H]1CCOC1 [Afatinib]
- Mean (survival) (TJ1060 worms [1]; 10% M22 + Afatinib 10 nM, liquid, 20° C., single experiments): 12.4 and 12.3 and 14.6 and 10.4
- resistance (vs no Afatinib control) (TJ1060 worms [1]; 10% M22 + Afatinib 10 nM, single experiments): ns and less
- Mean (survival) (TJ1060 worms [1]; [4]): 12.5
- resistance (vs no Afatinib control) (TJ1060 worms [1]; [4]): ns
- Mean (survival) (TJ1060 worms [1]; 10% M22 + Afatinib 100 nM, liquid, 20° C., single experiments): 13.5 and 13.2 and 15.3 and 11.3
- resistance (vs no Afatinib control) (TJ1060 worms [1]; 10% M22 + Afatinib 100 nM, single experiments): more and ns
- Mean (survival) (TJ1060 worms [1]; [5]): 13.4
- resistance (vs no Afatinib control) (TJ1060 worms [1]; [5]): more
- Mean (survival) (TJ1060 worms [1]; 10% M22 + Afatinib 1000 nM, liquid, 20° C., single experiments): 13.2 and 13.0 and 15.6 and 10.3
- resistance (vs no Afatinib control) (TJ1060 worms [1]; 10% M22 + Afatinib 1000 nM, single experiments): ns and more
- Mean (survival) (TJ1060 worms [1]; [6]): 13.0
- resistance (vs no Afatinib control) (TJ1060 worms [1]; [6]): ns
- protection of worms in 10% M22 (TJ1060 worms [1]; Afatinib 10 or 1000 nm): not
- survival in 10% M22 compared with control of no afatinib (FIG. 6) (TJ1060 worms [1]; Afatinib at 100 nM, 4 replicate blinded experiments, p<0.001): significantly better than control of no afatinib
- protection of worms in 10% M22 (TJ1060 worms [1]; Afatinib concentration of 100 nm): protects worms in 10% M22
- Mean (survival) (TJ1060 worms [2]; Afatinib 10 nM, no M22, single experiments): 20.5 and 19.7 and 19.1 and 22.1
- survival (vs no Afatinib control) (TJ1060 worms [2]; Afatinib 10 nM, single experiments): less and ns
- Mean (survival) (TJ1060 worms [2]; Afatinib 10 nM, summary): 20.3
- survival (vs no Afatinib control) (TJ1060 worms [2]; Afatinib 10 nM, summary): ns
- Mean (survival) (TJ1060 worms [2]; Afatinib 20 nM, no M22, single experiment): 21.1
- survival (vs no Afatinib control) (TJ1060 worms [2]; Afatinib 20 nM, single experiment): ns
- Mean (survival) (TJ1060 worms [2]; Afatinib 100 nM, no M22, single experiments): 19.4 and 21.1 and 19.8 and 21.8
- survival (vs no Afatinib control) (TJ1060 worms [2]; Afatinib 100 nM, single experiments): less and more and ns
- Mean (survival) (TJ1060 worms [2]; Afatinib 100 nM, summary): 20.4
- survival (vs no Afatinib control) (TJ1060 worms [2]; Afatinib 100 nM, summary): ns
- Mean (survival) (TJ1060 worms [2]; Afatinib 1000 nM, no M22, single experiments): 20.8 and 21.7 and 19.4 and 20.0
- survival (vs no Afatinib control) (TJ1060 worms [2]; Afatinib 1000 nM, single experiments): ns and more and less
- Mean (survival) (TJ1060 worms [2]; Afatinib 1000 nM, summary): 20.6
- survival (vs no Afatinib control) (TJ1060 worms [2]; Afatinib 1000 nM, summary): less
- longevity effect (TJ1060 worms [2]; worms, Afatinib without M22): did not have a longevity effect
- resistance to M22 toxicity ([3]; ESCs pre-treated with Afatinib 1-75 nM, lower M22 concentrations (FIG. 1)): increased resistance to M22 toxicity
- survival of otherwise lethal M22 challenge ([3]; ESCs pre-treated with Afatinib, 6% M22 in normal culture media (FIG. 1)): survived an otherwise lethal M22 challenge
- survival of cells after cryopreservative toxicity challenge with M22 (FIG. 1) ([3]; cells treated with Afatinib prior to M22 challenge): increased survival
- IC50 (ERB3/4; read-out: IC50): ~1 nM
- IC50 (ERB3/4; read-out: IC50 DOSE): 1 nM

Compound: COc1ccc(-c2cc(=O)c3c(O[C@@H]4O[C@H](CO[C@@H]5OC[C@@H](O)[C@H](O)[C@H]5O)[C@@H](O)[C@H](O)[C@H]4O)cc(OC)cc3o2)cc1 [Agalloside]
- inhibition of HSBP1 protein (HSBP1 protein): Agalloside inhibits the HSBP1
